Values of other authors, collected in Sander's compilation of Henry's law constants (doi:10.1016/j.chroma.2007.11.025).

Assay: Henry solubility constant Hcp at 298.15 K (mol/(m3 Pa))
Settings: reference: Sieg et al. (2008); cited value

SMILES | Henry solubility constant Hcp
Cc1ccccc1C [1,2-dimethylbenzene] | 0.0019
Cc1cccc(C)c1 [1,3-dimethylbenzene] | 0.0014
Cc1ccc(C)cc1 [1,4-dimethylbenzene] | 0.0014
ClCCBr [1-chloro-2-bromoethane] | 0.011
c1ccccc1 [benzene] | 0.0018
CCCCCCCCCC=O [decanal] | 0.0055
CCc1ccccc1 [ethylbenzene] | 0.0013
Fc1ccccc1 [fluorobenzene] | 0.0016
CCCCCCC=O [heptanal] | 0.037
Cc1ccccc1 [methylbenzene] | 0.0015
CCCCCCCCC=O [nonanal] | 0.014
CCCCCCCC=O [octanal] | 0.019
